# Columns and labels:
# Type in all cases: functional
# T47D = test: Cytotoxicity against Homo sapiens (human) T47D cells after 48 hr by SRB assay
# MDA-MB-231 = test: Cytotoxicity against Homo sapiens (human) MDA-MB-231 cells after 48 hr by SRB assay; conditions: MDA-MB-231, 48 h
# MCF7 = test: Cytotoxicity against Homo sapiens (human) MCF7 cells after 48 hr by SRB assay; conditions: MCF7, 48 h
# DU-145 = test: Cytotoxicity against Homo sapiens (human) DU145 cells after 48 hr by SRB assay; conditions: DU-145, 48 h
# PC-3 = test: Cytotoxicity against Homo sapiens (human) PC3 cells after 48 hr by SRB assay; conditions: PC-3, 48 h
# UO-31 = test: Cytotoxicity against Homo sapiens (human) UO31 cells after 48 hr by SRB assay; conditions: UO-31, 48 h
# TK-10 = test: Cytotoxicity against Homo sapiens (human) TK10 cells after 48 hr by SRB assay; conditions: TK-10, 48 h
# SN12C = test: Cytotoxicity against Homo sapiens (human) SN12C cells after 48 hr by SRB assay
# RXF 393 = test: Cytotoxicity against Homo sapiens (human) RXF393 cells after 48 hr by SRB assay; conditions: RXF 393, 48 h
# ACHN = test: Cytotoxicity against Homo sapiens (human) ACHN cells after 48 hr by SRB assay
# NCI-H226 = test: Cytotoxicity against Homo sapiens (human) NCI-H226 cells after 48 hr by SRB assay; conditions: NCI-H226, 48 h
# HOP-62 = test: Cytotoxicity against Homo sapiens (human) HOP62 cells after 48 hr by SRB assay; conditions: HOP-62, 48 h
# HOP-92 = test: Cytotoxicity against Homo sapiens (human) HOP92 cells after 48 hr by SRB assay; conditions: HOP-92, 48 h
# RPMI-8226 = test: Cytotoxicity against Homo sapiens (human) RPMI8226 cells after 48 hr by SRB assay; conditions: RPMI-8226, 48 h
# K562 = test: Cytotoxicity against Homo sapiens (human) K562 cells after 48 hr by SRB assay; conditions: K562, 48 h
# HL-60(TB) = test: Cytotoxicity against Homo sapiens (human) HL-60(TB) cells after 48 hr by SRB assay; conditions: HL-60, 48 h
# OVCAR-8 = test: Cytotoxicity against Homo sapiens (human) OVCAR8 cells after 48 hr by SRB assay; conditions: OVCAR-8, 48 h
# OVCAR-4 = test: Cytotoxicity against Homo sapiens (human) OVCAR4 cells after 48 hr by SRB assay; conditions: OVCAR-4, 48 h
# OVCAR-5 = test: Cytotoxicity against Homo sapiens (human) OVCAR5 cells after 48 hr by SRB assay; conditions: OVCAR-5, 48 h
# OVCAR-3 = test: Cytotoxicity against Homo sapiens (human) OVCAR3 cells after 48 hr by SRB assay; conditions: OVCAR-3, 48 h
# SK-MEL-5 = test: Cytotoxicity against Homo sapiens (human) SK-MEL-5 cells after 48 hr by SRB assay; conditions: SK-MEL-5, 48 h
# SK-MEL-28 = test: Cytotoxicity against Homo sapiens (human) SK-MEL-28 cells after 48 hr by SRB assay; conditions: SK-MEL-28, 48 h
# SK-MEL-2 = test: Cytotoxicity against Homo sapiens (human) SK-MEL-2 cells after 48 hr by SRB assay; conditions: SK-MEL-2, 48 h
# M14 = test: Cytotoxicity against Homo sapiens (human) M14 cells after 48 hr by SRB assay; conditions: M14, 48 h
# U-251 = test: Cytotoxicity against Homo sapiens (human) U251 cells after 48 hr by SRB assay; conditions: U-251, 48 h
# SNB-19 = test: Cytotoxicity against Homo sapiens (human) SNB19 cells after 48 hr by SRB assay; conditions: SNB-19, 48 h
# SF-539 = test: Cytotoxicity against Homo sapiens (human) SF539 cells after 48 hr by SRB assay; conditions: SF-539, 48 h
# SF-268 = test: Cytotoxicity against Homo sapiens (human) SF268 cells after 48 hr by SRB assay; conditions: SF-268, 48 h
# HT-29 = test: Cytotoxicity against Homo sapiens (human) HT-29 cells after 48 hr by SRB assay; conditions: HT-29, 48 h
# KM12 = test: Cytotoxicity against Homo sapiens (human) KM12 cells after 48 hr by SRB assay; conditions: KM12, 48 h
# HCT-15 = test: Cytotoxicity against Homo sapiens (human) HCT15 cells after 48 hr by SRB assay; conditions: HCT-15, 48 h
# COLO 205 = test: Cytotoxicity against Homo sapiens (human) COLO205 cells after 48 hr by SRB assay; conditions: COLO 205, 48 h
# NCI-H522 = test: Cytotoxicity against Homo sapiens (human) NCI-H522 cells after 48 hr by SRB assay; conditions: NCI-H522, 48 h
# NCI-H322M = test: Cytotoxicity against Homo sapiens (human) NCI-H322M cells after 48 hr by SRB assay
# [1] = read-out: LC50 (the source's name)
compound,measurement,setting,value
Nc1cc(-c2ccc(Cl)cc2)nn1-c1nc(=O)c(/C=C/c2ccco2)n[nH]1,LC50,T47D,> 100 µM
same,TGI,T47D,44.2 µM
same,GI50,T47D; read-out: GI50,4.37 µM
same,GI50,T47D; read-out: pGI50 (converted),4.37 µM
same,"LC50 (lethal concentration, 50%)",MDA-MB-231,> 100 µM
same,TGI,MDA-MB-231,> 100 µM
same,GI50,MDA-MB-231; read-out: GI50,13.9 µM
same,GI50,MDA-MB-231; read-out: pGI50 (converted),13.8 µM
same,LC50 (concentration killing 50% of cells),MCF7,> 100 µM
same,TGI,MCF7,50.4 µM
same,GI50,MCF7; read-out: GI50,4.05 µM
same,GI50,MCF7; read-out: pGI50 (converted),4.07 µM
same,LC50,DU-145,55.4 µM
same,TGI,DU-145,18.3 µM
same,GI50,DU-145; read-out: GI50,3.01 µM
same,GI50,DU-145; read-out: pGI50 (converted),3.02 µM
same,LC50 (50% lethal concentration),PC-3,> 100 µM
same,TGI,PC-3,56.2 µM
same,GI50,PC-3; read-out: GI50,5.6 µM
same,GI50,PC-3; read-out: pGI50 (converted),5.62 µM
same,TGI,UO-31,13.7 µM
same,GI50,UO-31; read-out: GI50,1.63 µM
same,CC50,UO-31; [1],> 100 µM
same,GI50,UO-31; read-out: pGI50 (converted),1.62 µM
same,LC50,TK-10,> 100 µM
same,TGI,TK-10,23.1 µM
same,GI50,TK-10; read-out: GI50,3.64 µM
same,GI50,TK-10; read-out: pGI50 (converted),3.63 µM
same,TGI,SN12C,> 100 µM
same,GI50,SN12C; read-out: GI50,18.7 µM
same,CC50,SN12C; [1],> 100 µM
same,GI50,SN12C; read-out: pGI50 (converted),18.6 µM
same,LC50,RXF 393,> 100 µM
same,TGI,RXF 393,54.9 µM
same,GI50,RXF 393; read-out: GI50,13.1 µM
same,GI50,RXF 393; read-out: pGI50 (converted),13.2 µM
same,LC50,ACHN,> 100 µM
same,TGI,ACHN,24.8 µM
same,GI50,ACHN; read-out: GI50,3.8 µM
same,GI50,ACHN; read-out: pGI50 (converted),3.8 µM
same,"LC50 (lethal concentration, 50% cell kill)",NCI-H226,> 100 µM
same,TGI,NCI-H226,75.6 µM
same,GI50,NCI-H226; read-out: GI50,12.2 µM
same,GI50,NCI-H226; read-out: pGI50 (converted),12.3 µM
same,LC50 (concentration killing 50% of cells),HOP-62,> 100 µM
same,TGI,HOP-62,76.8 µM
same,GI50,HOP-62; read-out: GI50,5.77 µM
same,GI50,HOP-62; read-out: pGI50 (converted),5.75 µM
same,LC50,HOP-92,> 100 µM
same,TGI,HOP-92,9.28 µM
same,GI50,HOP-92; read-out: GI50,1.61 µM
same,GI50,HOP-92; read-out: pGI50 (converted),1.62 µM
same,LC50,RPMI-8226,> 100 µM
same,TGI,RPMI-8226,23.2 µM
same,GI50,RPMI-8226; read-out: GI50,3.03 µM
same,GI50,RPMI-8226; read-out: pGI50 (converted),3.02 µM
same,LC50,K562,> 100 µM
same,TGI,K562,23 µM
same,GI50,K562; read-out: GI50,2.79 µM
same,GI50,K562; read-out: pGI50 (converted),2.75 µM
same,LC50,HL-60(TB),> 100 µM
same,TGI,HL-60(TB),8.19 µM
same,GI50,HL-60(TB); read-out: GI50,2.83 µM
same,GI50,HL-60(TB); read-out: pGI50 (converted),2.82 µM
same,TGI,OVCAR-8,65.8 µM
same,GI50,OVCAR-8; read-out: GI50,4.47 µM
same,CC50,OVCAR-8; [1],> 100 µM
same,GI50,OVCAR-8; read-out: pGI50 (converted),4.47 µM
same,LC50,OVCAR-4,> 100 µM
same,TGI,OVCAR-4,28.8 µM
same,GI50,OVCAR-4; read-out: GI50,3.45 µM
same,GI50,OVCAR-4; read-out: pGI50 (converted),3.47 µM
same,LC50 (50% lethal concentration),OVCAR-5,> 100 µM
same,TGI,OVCAR-5,82 µM
same,GI50,OVCAR-5; read-out: GI50,5.49 µM
same,GI50,OVCAR-5; read-out: pGI50 (converted),5.5 µM
same,LC50 (50% lethal concentration),OVCAR-3,31.8 µM
same,TGI,OVCAR-3,5.2 µM
same,GI50,OVCAR-3; read-out: GI50,1.48 µM
same,GI50,OVCAR-3; read-out: pGI50 (converted),1.48 µM
same,TGI,SK-MEL-5,24.8 µM
same,GI50,SK-MEL-5; read-out: GI50,3.83 µM
same,CC50,SK-MEL-5; [1],> 100 µM
same,GI50,SK-MEL-5; read-out: pGI50 (converted),3.8 µM
same,LC50,SK-MEL-28,> 100 µM
same,TGI,SK-MEL-28,82.3 µM
same,GI50,SK-MEL-28; read-out: GI50,4.06 µM
same,GI50,SK-MEL-28; read-out: pGI50 (converted),4.07 µM
same,TGI,SK-MEL-2,77.9 µM
same,GI50,SK-MEL-2; read-out: GI50,15.6 µM
same,CC50,SK-MEL-2; [1],> 100 µM
same,GI50,SK-MEL-2; read-out: pGI50 (converted),15.5 µM
same,LC50,M14,> 100 µM
same,TGI,M14,31.7 µM
same,GI50,M14; read-out: GI50,2.27 µM
same,GI50,M14; read-out: pGI50 (converted),2.29 µM
same,TGI,U-251,84.8 µM
same,GI50,U-251; read-out: GI50,4.47 µM
same,CC50,U-251; [1],> 100 µM
same,GI50,U-251; read-out: pGI50 (converted),4.47 µM
same,TGI,SNB-19,69.4 µM
same,GI50,SNB-19; read-out: GI50,5.81 µM
same,CC50,SNB-19; [1],> 100 µM
same,GI50,SNB-19; read-out: pGI50 (converted),5.75 µM
same,TGI,SF-539,26.1 µM
same,GI50,SF-539; read-out: GI50,5.49 µM
same,CC50,SF-539; [1],> 100 µM
same,GI50,SF-539; read-out: pGI50 (converted),5.5 µM
same,TGI,SF-268,25.1 µM
same,GI50,SF-268; read-out: GI50,1.99 µM
same,CC50,SF-268; [1],> 100 µM
same,GI50,SF-268; read-out: pGI50 (converted),2 µM
same,TGI,HT-29,> 100 µM
same,GI50,HT-29; read-out: GI50,7.82 µM
same,CC50,HT-29; [1],> 100 µM
same,GI50,HT-29; read-out: pGI50 (converted),7.76 µM
same,TGI,KM12,32 µM
same,GI50,KM12; read-out: GI50,3.19 µM
same,CC50,KM12; [1],> 100 µM
same,GI50,KM12; read-out: pGI50 (converted),3.16 µM
same,TGI,HCT-15,> 100 µM
same,GI50,HCT-15; read-out: GI50,1.89 µM
same,CC50,HCT-15; [1],> 100 µM
same,GI50,HCT-15; read-out: pGI50 (converted),1.91 µM
same,TGI,COLO 205,18.4 µM
same,GI50,COLO 205; read-out: GI50,3.44 µM
same,CC50,COLO 205; [1],> 100 µM
same,GI50,COLO 205; read-out: pGI50 (converted),3.47 µM
same,TGI,NCI-H522,36.8 µM
same,GI50,NCI-H522; read-out: GI50,5.12 µM
same,CC50,NCI-H522; [1],> 100 µM
same,GI50,NCI-H522; read-out: pGI50 (converted),5.13 µM
same,TGI,NCI-H322M,38.2 µM
same,GI50,NCI-H322M; read-out: GI50,1.47 µM
same,CC50,NCI-H322M; [1],> 100 µM
same,GI50,NCI-H322M; read-out: pGI50 (converted),1.48 µM

# From ChEMBL document CHEMBL3045199, “Synthesis of some (E)-6-[2-(furan-2-yl)ethenyl]-1,2,4-triazin-5-ones and their biological evaluation as antitumor agents” (2013)
